Calls of active or inactive are those of the source. No cut-off for these calls is given here.
Columns and labels:
Staphylococcus aureus = experiment: Antibacterial activity against Staphylococcus aureus at 100 ug/disk; type: functional
Artemia = experiment: Toxicity against brine shrimp; type: organism-based; conditions: in vivo
Bacillus subtilis = experiment: Antibacterial activity against Bacillus subtilis at 100 ug/disk; type: functional
Klebsiella pneumoniae = experiment: Antibacterial activity against Klebsiella pneumoniae at 100 ug/disk; type: functional
Escherichia coli = experiment: Antibacterial activity against sEscherichia coli at 100 ug/disk; type: functional

## CC(=O)OCc1nccc2c1C(=O)C(O)=C(C)C2=O
Staphylococcus aureus; read-out: IZ
  zone of inhibition at 100 µg/disc: 14 mm
Artemia
  Activity: Non-toxic
Bacillus subtilis; read-out: IZ
  zone of inhibition at 100 µg/disc: 16 mm
Klebsiella pneumoniae; read-out: IZ
  zone of inhibition at 100 µg/disc: 12 mm
Escherichia coli; read-out: IZ
  zone of inhibition at 100 µg/disc: 12 mm

## COc1cc(O)c2c(c1)C(COC(C)=O)N(C=O)C=C2 (stereo not given)
Staphylococcus aureus
  Activity: inactive
Artemia
  Activity: Non-toxic
Bacillus subtilis
  Activity: inactive
Klebsiella pneumoniae
  Activity: inactive
Escherichia coli
  Activity: inactive

Source: ChEMBL document CHEMBL1141854, “A new 1,2-dihydroisoquinoline from the sponge petrosia similis” (J Nat Prod, 1999)
